Assay results published in US11312712B2, “Azabenzimidazoles and their use as AMPA receptor modulators” (Janssen Pharmaceutica NV, priority 2015, dated 2022).

What follows are molecules tested against GluA1o-γ8 (GRIA1o-CACNG8 fusion construct) (Homo sapiens (Human), UniProt P42261+Q8WXS5) (assay: Calcium flux assay (FLIPR), inhibition of TARP γ8 dependent AMPA receptor activity). Conditions: GluA1o-γ8 (GRIA1o-CACNG8 fusion) in HEK293 cells, calcium flux after 15 μM glutamate.
Type: cell-based
How it was run: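 Glutamate (15 μM) was added to a stable HEK293 line carrying the GluA1o–γ8 fusion, which had been preincubated with compound and calcium dye in HEPES buffer, pH 7.4. Normalized FLIPR fluorescence (no compound vs 10 μM CP465022) was fitted with four parameters; pIC50 is the midpoint's negative log.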

GluA1o-γ8 (GRIA1o-CACNG8 fusion construct), sequence (P42261 other isoform, or with tags, fused parts or gaps): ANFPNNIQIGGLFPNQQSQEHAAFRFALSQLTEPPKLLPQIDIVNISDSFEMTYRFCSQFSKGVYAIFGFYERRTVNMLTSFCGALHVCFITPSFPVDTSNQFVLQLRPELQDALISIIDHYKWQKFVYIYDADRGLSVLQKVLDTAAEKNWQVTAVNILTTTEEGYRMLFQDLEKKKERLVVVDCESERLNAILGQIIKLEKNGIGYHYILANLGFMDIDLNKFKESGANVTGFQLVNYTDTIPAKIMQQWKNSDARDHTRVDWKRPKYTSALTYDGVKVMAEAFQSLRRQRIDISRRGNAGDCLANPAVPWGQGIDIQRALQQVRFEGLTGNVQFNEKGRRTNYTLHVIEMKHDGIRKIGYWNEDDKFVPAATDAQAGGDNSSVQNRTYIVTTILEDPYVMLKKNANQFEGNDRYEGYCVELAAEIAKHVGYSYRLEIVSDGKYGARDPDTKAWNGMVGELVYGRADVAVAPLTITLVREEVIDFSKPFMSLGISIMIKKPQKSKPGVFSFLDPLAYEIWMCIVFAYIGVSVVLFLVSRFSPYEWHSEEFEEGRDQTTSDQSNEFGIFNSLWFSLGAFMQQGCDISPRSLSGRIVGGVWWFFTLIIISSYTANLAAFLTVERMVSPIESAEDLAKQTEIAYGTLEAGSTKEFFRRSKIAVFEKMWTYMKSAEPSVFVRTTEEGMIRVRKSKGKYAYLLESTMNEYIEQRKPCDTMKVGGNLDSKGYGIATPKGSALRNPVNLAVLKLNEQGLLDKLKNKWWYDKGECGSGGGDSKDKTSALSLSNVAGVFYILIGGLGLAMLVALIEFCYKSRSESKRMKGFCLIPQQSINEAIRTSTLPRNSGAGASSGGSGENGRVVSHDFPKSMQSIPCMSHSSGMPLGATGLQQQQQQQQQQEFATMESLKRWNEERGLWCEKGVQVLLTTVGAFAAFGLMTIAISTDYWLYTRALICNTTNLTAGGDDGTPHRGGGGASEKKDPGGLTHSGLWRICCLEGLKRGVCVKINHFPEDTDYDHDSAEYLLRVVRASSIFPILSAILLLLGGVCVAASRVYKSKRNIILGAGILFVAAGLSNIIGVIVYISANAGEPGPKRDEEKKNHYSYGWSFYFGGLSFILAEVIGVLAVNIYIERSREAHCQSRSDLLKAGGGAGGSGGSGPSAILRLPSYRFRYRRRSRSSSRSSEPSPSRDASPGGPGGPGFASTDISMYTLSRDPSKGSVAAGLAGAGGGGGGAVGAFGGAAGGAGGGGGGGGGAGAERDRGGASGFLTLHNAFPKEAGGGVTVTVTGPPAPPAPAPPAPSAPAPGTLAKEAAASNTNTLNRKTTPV

IC50 | SMILES
0.126 nM | CC[C@@H](C)c1nc2ccc(C(F)(F)F)nc2n1-c1cc(C)c2[nH]ncc2c1 (single isomer, unassigned) [Example 406, (*R)-2-(sec-Butyl)-3-(7-methyl-1H-indazol-5-yl)-5-(trifluoromethyl)-3H-imidazo[4,5-b]pyridine]
0.501 nM | Cc1ccc2nc(-c3ccnc(F)c3)n(-c3cc(C)c4[nH]ncc4c3)c2n1 [Example 213, 2-(2-Fluoro-4-pyridyl)-5-methyl-3-(7-methyl-1H-indazol-5-yl)imidazo[4,5-b]pyridine]
6.31 nM | CCC(C)c1nc2ccc(C(F)(F)F)nc2n1-c1ccc2c(c1)CC(=O)N2 (racemic) [Example 96, (racemic)-5-[2-sec-Butyl-5-(trifluoromethyl)imidazo[4,5-b]pyridin-3-yl]indolin-2-one]
31.6 nM | Fc1ccc(-c2nc3cccnc3n2-c2ccc3[nH]ncc3c2)cc1 [Example 22, 2-(4-Fluorophenyl)-3-(1H-indazol-5-yl)imidazo[4,5-b]pyridine]
0.398 nM | FC(F)(F)c1ccc2nc(-c3ccccc3)n(-c3ccc4[nH]ncc4c3)c2n1 [Example 1, 3-(1H-Indazol-5-yl)-2-phenyl-5-(trifluoromethyl)-3H-imidazo[4,5-b]pyridine]
2 nM | CC(C)c1nc2ccc(C3CC3)nc2n1-c1ccc2[nH]ncc2c1 [Example 79, 5-Cyclopropyl-3-(1H-indazol-5-yl)-2-isopropyl-imidazo[4,5-b]pyridine]
6.31 nM | Cc1nc2ccc(C(F)(F)F)nc2n1-c1ccc2[nH]c(=O)sc2c1 [Example 46, 6-[2-Methyl-5-(trifluoromethyl)imidazo[4,5-b]pyridin-3-yl]-3H-1,3-benzothiazol-2-one]
316 nM | O=c1[nH]c2ccc(-n3c(-c4ccccc4)nc4ccc(N5CCOCC5)nc43)cc2s1 [Example 65, 6-(5-Morpholino-2-phenyl-imidazo[4,5-b]pyridin-3-yl)-3H-1,3-benzothiazol-2-one]
39.8 nM | CSc1ccc2nc(-c3ccc(F)cc3)n(-c3ccc4[nH]ccc4c3)c2n1 [Example 155, 2-(4-Fluorophenyl)-3-(1H-indol-5-yl)-5-methylsulfanyl-imidazo[4,5-b]pyridine]
10 nM | CC(C)Cc1nc2ccc(C(F)(F)F)nc2n1-c1ccc2c(c1)CC(=O)N2 [Example 51, 5-[2-Isobutyl-5-(trifluoromethyl)imidazo[4,5-b]pyridin-3-yl]indolin-2-one]
0.02 nM | C=C(C)c1cc(-n2c(C(F)(F)F)nc3ccc(C(F)(F)F)nc32)cc2cn[nH]c12 [Example 305, 3-(7-(Prop-1-en-2-yl)-1H-indazol-5-yl)-2,5-bis(trifluoromethyl)-3H-imidazo[4,5-b]pyridine]
0.2 nM | O=C1Cc2cc(-n3c(C(F)F)nc4ccc(C(F)(F)F)nc43)cc(Cl)c2N1 [Example 272, 7-Chloro-5-[2-(difluoromethyl)-5-(trifluoromethyl)imidazo[4,5-b]pyridin-3-yl]indolin-2-one]
100 nM | Cc1ccc2ccn(-c3cc(C)c4c(c3)CC(=O)N4)c2n1 [Example 378, 7-Methyl-5-(6-methylpyrrolo[2,3-b]pyridin-1-yl)indolin-2-one]
12.6 nM | CCc1nc2ccc(C(F)(F)F)nc2n1-c1ccc2c(c1)CC(=O)N2 [Example 99, 5-[2-Ethyl-5-(trifluoromethyl)imidazo[4,5-b]pyridin-3-yl]indolin-2-one]
3.98 nM | FC(F)(F)c1cc(N2CCOCC2)c2nc(C(F)(F)F)n(-c3ccc4[nH]ncc4c3)c2n1 [Example 231, 4-[3-(1H-Indazol-5-yl)-2,5-bis(trifluoromethyl)imidazo[4,5-b]pyridin-7-yl]morpholine]
3.16 nM | O=C1Cc2cc(-n3c(-c4ccc(F)cc4)nc4c(N5CCOCC5)ccnc43)ccc2N1 [Example 63, 5-[2-(4-Fluorophenyl)-7-morpholino-imidazo[4,5-b]pyridin-3-yl]indolin-2-one]
20 nM | CC(C)(C)c1nc2ccc(C(F)(F)F)nc2n1-c1ccc2[nH]ncc2c1 [Example 108, 2-tert-Butyl-3-(1H-indazol-5-yl)-5-(trifluoromethyl)imidazo[4,5-b]pyridine]
794 nM | CN(C)C(=O)c1nc2ccc(C(F)(F)F)nc2n1-c1ccc2[nH]ncc2c1 [Example 126, 3-(1H-Indazol-5-yl)-N,N-dimethyl-5-(trifluoromethyl)imidazo[4,5-b]pyridine-2-carboxamide]
2.51 nM | Fc1n[nH]c2ccc(-n3c(C(F)(F)F)nc4ccc(C(F)(F)F)nc43)cc12 [Example 237, 3-(3-Fluoro-1H-indazol-5-yl)-2,5-bis(trifluoromethyl)imidazo[4,5-b]pyridine]
251 nM | COCCc1nc2ccc(C(F)(F)F)nc2n1-c1ccc2c(c1)CC(=O)N2 [Example 77, 5-[2-(2-Methoxyethyl)-5-(trifluoromethyl)imidazo[4,5-b]pyridin-3-yl]indolin-2-one]

IC50 | SMILES
0.0316 nM | FC(F)(F)c1ccc2nc([C@H]3C[C@H](F)C3)n(-c3cc(Cl)c4[nH]ncc4c3)c2n1 [Example 250, 3-(7-Chloro-1H-indazol-5-yl)-2-(3-fluorocyclobutyl)-5-(trifluoromethyl)imidazo[4,5-b]pyridine]
0.251 nM | O=c1[nH]c2ccc(-n3c(-c4ccnc(F)c4)nc4ccc(C(F)(F)F)nc43)cc2s1 [Example 31, 6-[2-(2-Fluoro-4-pyridyl)-5-(trifluoromethyl)imidazo[4,5-b]pyridin-3-yl]-3H-1,3-benzothiazol-2-one]
158 nM | CC(C)(C)c1nc2ccc(C(F)(F)F)nc2n1-c1ccc2[nH]c(=O)oc2c1 [Example 163, 6-[2-tert-Butyl-5-(trifluoromethyl)imidazo[4,5-b]pyridin-3-yl]-3H-1,3-benzoxazol-2-one]
158 nM | FC(F)(F)c1ccc2nc(NC3CCCCC3)n(-c3ccc4[nH]ncc4c3)c2n1 [Example 131, N-Cyclohexyl-3-(1H-indazol-5-yl)-5-(trifluoromethyl)imidazo[4,5-b]pyridin-2-amine]
5.01 nM | Cc1cc(N2CCOCC2)c2nc(C3CC3)n(-c3ccc4[nH]c(=O)sc4c3)c2n1 [Example 136, 6-(2-Cyclopropyl-5-methyl-7-morpholino-imidazo[4,5-b]pyridin-3-yl)-3H-1,3-benzothiazol-2-one]
2 nM | FC(F)(F)c1nc2cccnc2n1-c1cc(Cl)c2[nH]ncc2c1 [Example 199, 3-(7-Chloro-1H-indazol-5-yl)-2-(trifluoromethyl)imidazo[4,5-b]pyridine]
0.0631 nM | Cc1cc(-n2c(C(C)C)nc3ccc(C(F)F)nc32)cc2cn[nH]c12 [Example 273, 5-(Difluoromethyl)-2-isopropyl-3-(7-methyl-1H-indazol-5-yl)imidazo[4,5-b]pyridine]
63.1 nM | O=C1Cc2cc(-n3c(C4CCOCC4)nc4ccc(C(F)(F)F)nc43)ccc2N1 [Example 50, 5-[2-Tetrahydropyran-4-yl-5-(trifluoromethyl)imidazo[4,5-b]pyridin-3-yl]indolin-2-one]
1580 nM | O=C1Nc2ccc(-n3c(-c4ccnc(F)c4)nc4ccc(C(F)(F)F)nc43)cc2C1=O [Example 215, 5-[2-(2-Fluoro-4-pyridyl)-5-(trifluoromethyl)imidazo[4,5-b]pyridin-3-yl]indoline-2,3-dione]
0.251 nM | CC(C)c1nc2ccc(C(F)(F)F)nc2n1-c1ccc2[nH]ncc2c1 [Example 109, 3-(1H-Indazol-5-yl)-2-isopropyl-5-(trifluoromethyl)imidazo[4,5-b]pyridine]
1.26 nM | Cc1ccc2nc(C(C)(F)F)n(-c3cc(Cl)c4[nH]ncc4c3)c2n1 [Example 410, 3-(7-Chloro-1H-indazol-5-yl)-2-(1,1-difluoroethyl)-5-methyl-3H-imidazo[4,5-b]pyridine]
2 nM | Cc1cc(-n2ccc3ccc(C(F)(F)F)nc32)cc2cn[nH]c12 [Example 377, 1-(7-Methyl-1H-indazol-5-yl)-6-(trifluoromethyl)pyrrolo[2,3-b]pyridine]
0.0631 nM | FC(F)(F)c1ccc2nc(C3(F)CC3)n(-c3cc(Cl)c4[nH]ncc4c3)c2n1 [Example 258, 3-(7-Chloro-1H-indazol-5-yl)-2-(1-fluorocyclopropyl)-5-(trifluoromethyl)imidazo[4,5-b]pyridine]
0.398 nM | O=C1Cc2cc(-n3c(-c4ccccc4)nc4ccc(C(F)(F)F)nc43)ccc2N1 [Example 36, 5-[2-Phenyl-5-(trifluoromethyl)imidazo[4,5-b]pyridin-3-yl]indolin-2-one]
39.8 nM | COc1ccc2nc(-c3ccc(F)cc3)n(-c3ccc4c(c3)CC(=O)N4)c2n1 [Example 6, 5-[2-(4-Fluorophenyl)-5-methoxy-imidazo[4,5-b]pyridin-3-yl]indolin-2-one]
79.4 nM | O=C1Cc2cc(-n3c(CCC(F)(F)F)nc4ccc(C(F)(F)F)nc43)ccc2N1 [Example 53, 5-[5-(Trifluoromethyl)-2-(3,3,3-trifluoropropyl)imidazo[4,5-b]pyridin-3-yl]indolin-2-one]
0.158 nM | c1cc2[nH]ncc2cc1-n1c(C2CCC2)nc2ccc(C3CC3)nc21 [Example 78, 2-Cyclobutyl-5-cyclopropyl-3-(1H-indazol-5-yl)imidazo[4,5-b]pyridine]
10 nM | Cc1cc(-n2c(C3CC3)cc3cccnc32)cc2c1NC(=O)C2 [Example 359, 5-(2-Cyclopropylpyrrolo[2,3-b]pyridin-1-yl)-7-methyl-indolin-2-one]
39.8 nM | Cc1ccc2nc(C(F)(F)F)n(-c3ccc4c(c3)CC(=O)N4)c2n1 [Example 139, 5-[5-Methyl-2-(trifluoromethyl)imidazo[4,5-b]pyridin-3-yl]indolin-2-one]
5.01 nM | CC(F)(F)c1nc2ccc(C(F)F)nc2n1-c1ccc2c(c1)CC(=O)N2 [Example 154, 5-[2-(1-Difluoroethyl)-5-(difluoromethyl)imidazo[4,5-b]pyridin-3-yl]indolin-2-one]
